Test results taken from patent publication US6878722B2, “Substituted cycloalkyl P1′ hepatitis C virus inhibitors” (Bristol-Myers Squibb Company, priority 2002, dated 2005).
pEC50, pIC50: −log10 of the molar value.

Legend:
[1] = target: T1, HCV NS3/4A protease complex (BMS strain, genotype 1a) (Hepatitis C virus genotype 1a, UniProt P27958, C1454S); assay: Recombinant HCV NS3/4A protease complex FRET peptide assay, BMS strain; format: biochemical; settings: IC50 range, NS3/4A BMS Strain
T1 construct: DNA encoding the recombinant HCV NS3/4A protease complex (amino acids 1027 to 1711) for these strains; inferred from the pET21b vector and Ni-NTA purification; made in house; host or cells: Escherichia coli BL21 (DE3), pET21b
From the text: The purpose of this in vitro assay was to measure the inhibition of HCV NS3 protease complexes, derived from the BMS, H77C or J416S strains, as described below, by compounds of the present invention.
Serum from an HCV-infected patient was obtained from Dr. T. Wright, San Francisco Hospital. An engineered full-length cDNA (compliment deoxyribonucleic acid) template of the HCV genome (BMS strain) was constructed from DNA fragments obtained by reverse transcription-PCR (RT-PCR) of serum RNA (ribonucleic acid) and using primers selected on the basis of homology between other genotype 1a strains. […] The infectious clones, H77C (1a genotype) and J4L6S (1b genotype) were obtained from R. Purcell (NIH) and the sequences are published in Genbank (AAB67036, see Yanagi,M., Purcell,R. H., Emerson,S. U. and Bukh,J. Proc. Natl. Acad. Sci. U.S.A. 94(16),8738-8743 (1997); AF054247, see Yanagi,M., St Claire,M., Shapiro,M., Emerson,S. U., Purcell,R. H. and Bukh,J, Virology 244 (1), 161-172. (1998)).
The BMS, H77C and J4L6S strains were used for production of recombinant NS3/4A protease complexes. DNA encoding the recombinant HCV NS3/4A protease complex (amino acids 1027 to 1711) for these strains were manipulated as described by P. Gallinari et al. (see Gallinari P, Paolini C, Brennan D, Nardi C, Steinkuhler C, De Francesco R. Biochemistry. 38(17):5620-32, (1999)). Briefly, a three-lysine solubilizing tail was added at the 3′-end of the NS4A coding region. The cysteine in the P1 position of the NS4A-NS4B cleavage site (amino acid 1711) was changed to a glycine to avoid the proteolytic cleavage of the lysine tag. Furthermore, a cysteine to serine mutation was introduced by PCR at amino acid position 1454 to prevent the autolytic cleavage in the NS3 helicase domain. The variant DNA fragment was cloned in the pET21b bacterial expression vector (Novagen) and the NS3/4A complex was expressed in Escherichia. coli strain BL21 (DE3) (Invitrogen) following the protocol described by P. Gallinari et al. (see Gallinari P, Brennan D, Nardi C, Brunetti M, Tomei L, Steinkuhler C, De Francesco R., J. Virol. 72(8):6758-69 (1998)) with modifications. Briefly, NS3/4A expression was induced with 0.5 mM Isopropyl β-D-1-thiogalactopyranoside (IPTG) for 22 hr at 20° C. […] The cells were resuspended in lysis buffer (10 mL/g) consisting of 25 mM N-(2-Hydroxyethyl)Piperazine-N′-(2-Ethane Sulfonic acid) (HEPES), pH 7.5, 20% glycerol, 500 mM Sodium Chloride (NaCl), 0.5% Triton-X100, 1 ug/ml lysozyme, 5 mM Magnesium Chloride (MgCl2), 1 ug/ml DnaseI, 5 mM β-Mercaptoethanol (βME), Protease inhibitor—Ethylenediamine Tetraacetic acid (EDTA) free (Roche), homogenized and incubated for 20 mins at 4° C. The homogenate was sonicated and clarified by ultra-centrifugation at 235000 g for 1 hr at 4° C. Imidazole was added to the supernatant to a final concentration of 15 mM and the pH adjusted to 8.0. The crude protein extract was loaded on a Nickel-Nitrilotriacetic acid (Ni-NTA) column pre-equilibrated with buffer B (25 mM HEPES, pH 8.0, 20% glycerol, 500 mM NaCl, 0.5% Triton-X100, 15 mM imidazole, 5 mM βME). The sample was loaded at a flow rate of 1 mL/min. The column was washed with 15 column volumes of buffer C (same as buffer B except with 0.2% Triton-X100). The protein was eluted with 5 column volumes of buffer D (same as buffer C except with 200 mM Imidazole).
NS3/4A protease complex-containing fractions were pooled and loaded on a desalting column Superdex-S200 pre-equilibrated with buffer D (25 mM HEPES, pH7.5, 20% glycerol, 300 mM NaCl, 0.2% Triton-X100, 10 mM βME).

[2] = test system: HCV replicon in Huh7 cells; assay: HCV replicon cell-based assay (FRET); settings: Hepatitis C virus, Huh-7; HCV replicon; read-out: EC50 range
From the text: An HCV replicon whole cell system was established as described by Lohmann V, Korner F, Koch J, Herian U, Theilmann L, Bartenschlager R., Science 285(5424):110-3 (1999). This system enabled us to evaluate the effects of our HCV Protease compounds on HCV RNA replication. Briefly, using the HCV strain 1B sequence described in the Lohmann paper (Assession number: AJ238799), an HCV cDNA was generated encoding the 5′ internal ribosome entry site (IRES), the neomycin resistance gene, the EMCV (encephalomyocarditis viurs)-IRES and the HCV nonstructural proteins, NS3-NS5B, and 3′ non-translated region (NTR). In vitro transcripts of the cDNA were transfected into the human hepatoma cell line, Huh7. […] Resulting cell lines were characterized for positive and negative strand RNA production and protein production over time.
Huh7 cells, constitutively expressing the HCV replicon, were grown in Dulbecco's Modified Eagle Media (DMEM) containing 10% Fetal calf serum (FCS) and 1 mg/ml G418 (Gibco-BRL). Cells were seeded the night before (1.5×10^4 cells/well) in 96-well tissue-culture sterile plates. Compound and no compound controls were prepared in DMEM containing 4% FCS, 1:100 Penicillin/Streptomysin, 1:100 L-glutamine and 5% DMSO in the dilution plate (0.5% DMSO final concentration in the assay). Compound/DMSO mixes were added to the cells and incubated for 4 days at 37° C. After 4 days, plates were rinsed thoroughly with Phosphate-Buffered Saline (PBS) (3 times 150 μl). The cells were lysed with 25 μl of a lysis assay reagent containing the FRET peptide (RET S1, as described for the in vitro enzyme assay). The lysis assay reagent was made from 5× cell Luciferase cell culture lysis reagent(Promega #E153A) diluted to 1× with distilled water, NaCl added to 150 mM final, the FRET peptide diluted to 10 μM final from a 2 mM stock in 100% DMSO. The plate was then placed into the Cytofluor 4000 instrument which had been set to 340 nm excitation/490 emission, automatic mode for 21 cycles and the plate read in a kinetic mode. EC50 determinations were carried out as described for the IC50 determinations.

T1 sequence (P27958 1658-1714, looked up, stated change not applied): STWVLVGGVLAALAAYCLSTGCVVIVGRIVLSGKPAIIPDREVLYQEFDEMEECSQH
T1 sequence (P27958 1027-1657, looked up, stated change not applied): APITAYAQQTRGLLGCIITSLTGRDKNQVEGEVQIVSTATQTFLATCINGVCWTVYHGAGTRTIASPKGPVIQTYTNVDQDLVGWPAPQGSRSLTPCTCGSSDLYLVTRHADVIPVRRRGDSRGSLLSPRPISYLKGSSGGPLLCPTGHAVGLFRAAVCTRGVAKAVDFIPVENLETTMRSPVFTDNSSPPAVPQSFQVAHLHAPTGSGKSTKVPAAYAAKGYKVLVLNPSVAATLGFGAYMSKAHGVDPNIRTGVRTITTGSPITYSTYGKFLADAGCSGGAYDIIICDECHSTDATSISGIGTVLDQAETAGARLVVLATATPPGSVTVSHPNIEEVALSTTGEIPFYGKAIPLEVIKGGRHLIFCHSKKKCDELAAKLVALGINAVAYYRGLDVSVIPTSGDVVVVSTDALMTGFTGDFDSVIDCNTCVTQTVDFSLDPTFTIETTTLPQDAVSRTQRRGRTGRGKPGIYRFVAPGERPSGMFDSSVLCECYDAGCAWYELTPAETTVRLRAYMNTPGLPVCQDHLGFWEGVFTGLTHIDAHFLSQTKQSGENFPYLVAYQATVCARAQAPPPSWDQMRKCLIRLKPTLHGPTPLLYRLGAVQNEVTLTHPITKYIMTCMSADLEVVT

SMILES | pIC50 [1] | pEC50 [2]
C=CC1C[C@]1(NC(=O)[C@@H]1C[C@@H](Oc2cc(-c3ccccc3)nc3cc(OC)ccc23)CN1C(=O)[C@@H](NC(=O)OC1CCCC1)C(C)(C)C)C(=O)NS(=O)(=O)C1(C)CC1 (stereo in doubt) [Compound 12, (1-{4-(7-Methoxy-2-phenyl-quinolin-4-yloxy)-2-[1-(1-methylcyclopropanesulfonyl-aminocarbonyl)-2-vinyl-cyclopropylcarbamoyl]-pyrrolidine-1-carbonyl}-2,2-dimethylpropyl)carbamic acid cyclopentyl ester] | > 7.30 | > 7.30
C=CC1C[C@]1(NC(=O)[C@@H]1C[C@@H](Oc2cc(-c3ccccc3)nc3cc(OC)ccc23)CN1C(=O)[C@@H](NC(=O)CC1CC1)C(C)(C)C)C(=O)NS(=O)(=O)C1(C)CC1 (stereo in doubt) [Compound 13, 1-[2-(2-Cyclopropyl-acetylamino)-3,3-dimethyl-butyryl]-4-(7-methoxy-2-phenylquinolin-4-yloxy)-pyrrolidine-2-carboxylic acid [1-(1-methylcyclopropanesulfonylaminocarbonyl)-2-vinylcyclopropyl]amide] | > 7.30 | > 7.30
C=CCC1(S(=O)(=O)NC(=O)[C@@]2(NC(=O)[C@@H]3C[C@@H](Oc4cc(-c5ccccc5)nc5cc(OC)ccc45)CN3C(=O)[C@@H](NC(=O)OC(C)(C)C)C(C)(C)C)CC2C=C)CC1 (some centres unmarked) [Compound 2, {1-[2-[1-(1-Allylcyclopropanesul-fonylaminocarbonyl)-2-vinylcyclopropylcarbamoyl]-4-(7-methoxy-2-phenylquinolin-4-yloxy)-pyrrolidine-1-carbonyl]-2,2-dimethylpropyl}carbamic acid tert-butyl ester] | > 7.30 | > 7.30
C=CC1C[C@]1(NC(=O)[C@@H]1C[C@@H](Oc2cc(-c3ccccc3)nc3cc(OC)ccc23)CN1C(=O)[C@@H](NC(=O)OC(C)(C)C)C(C)(C)C)C(=O)NS(=O)(=O)C1(COC)CC1 (some centres unmarked) [Compound 7, {1-[2-[1-(1-Methoxymethylcyclopropanesulfonylaminocarbonyl)-2-vinylcyclopropylcarbamoyl]-4-(7-methoxy-2-phenyl-quinolin-4--yloxy)pyrrolidine-1-carbonyl]-2,2-dimeth-ylpropyl}-carbamic acid tert-butyl ester] | > 7.30 | > 7.30
C=CC1C[C@]1(NC(=O)[C@@H]1C[C@@H](Oc2cc(-c3ccccc3)nc3cc(OC)ccc23)CN1C(=O)[C@@H](NC(=O)OC(C)(C)C)C(C)(C)C)C(=O)NS(=O)(=O)C1(CC2CC2)CC1 (some centres unmarked) [Compound 8, {1-[2-[1-(1-Cyclopropylmethyl-cyclopropanesulfonylaminocarbonyl)-2-vinyl-cyclopropylcarbamoyl]-4-(7-methoxy-2-phenyl-quinolin-4-yloxy)-pyrrolidine-1-carbonyl]-2,2-dime-thylpropyl}-carbamic acid tert-butyl ester] | > 7.30 | > 7.30
C=CC1C[C@]1(NC(=O)[C@@H]1C[C@@H](Oc2cc(-c3ccccc3)nc3cc(OC)ccc23)CN1C(=O)[C@@H](NC(=O)OC(C)(C)C)C(C)(C)C)C(=O)NS(=O)(=O)C1(C(=O)Nc2c(C)noc2C)CC1 (some centres unmarked) [Compound 10, {1-[2-{1-[1-(3,5-Dimethylisoxazol-4-ylcarbamoyl)cyclopropanesul-fonylaminocarbonyl]-2-vinylcyclopropylcarbamoyl}-4-(7-methoxy-2-phenylquinolin-4-yloxy)pyrrolidine-1-carbon-yl]-2,2-dimethylpropyl}carbamicacid tert-butyl ester] | > 7.30 | > 7.30
C=CC1C[C@]1(NC(=O)[C@@H]1C[C@@H](Oc2cc(-c3ccccc3)nc3cc(OC)ccc23)CN1C(=O)[C@@H](NC(=O)OC(C)(C)C)C(C)(C)C)C(=O)NS(=O)(=O)C1(Br)CC1 (some centres unmarked) [Compound 11, {1-[2-[1-(1-Bromocyclopropanesulfonylaminocarbonyl)-2-vinylcy-clopropylcarbamoyl]-4-(7-methoxy-2-phenylquinolin-4-yloxy)pyrrolidine-1-carbonyl]-2,2-dimethylpropyl}-carbamic acid tert-butyl ester] | > 7.30 | > 7.30
C=C[C@@H]1C[C@]1(NC(=O)[C@@H]1C[C@@H](Oc2cc(-c3ccccc3)nc3cc(OC)ccc23)CN1C(=O)[C@@H](NC(=O)OC(C)(C)C)C(C)(C)C)C(=O)NS(=O)(=O)C1([Si](C)(C)C)CC1 [Compound 27] | > 7.30 | > 7.30
C=C[C@@H]1C[C@]1(NC(=O)[C@@H]1C[C@@H](Oc2cc(-c3ccccc3)nc3cc(OC)ccc23)CN1C(=O)[C@@H](NC(=O)OC(C)(C)C)C(C)(C)C)C(=O)NS(=O)(=O)C1(CC)CC1 [Compound 28] | > 7.30 | > 7.30
C=C[C@@H]1C[C@]1(NC(=O)[C@@H]1C[C@@H](Oc2cc(-c3ccccc3)nc3cc(OC)ccc23)CN1C(=O)[C@@H](NC(=O)OC(C)(C)C)C(C)(C)C)C(=O)NS(=O)(=O)C1(CCC)CC1 [Compound 29, (1-{4-(7-Methoxy-2-phenyl-quinolin-4-yloxy)-2-[1-(1-propyl-cyclopropanesulfonylaminocarbonyl)-2-vinyl-cyclopropylcarbamoyl]-pyrrolidine-1-carbonyl}-2,2-dimethyl-propyl)-carbamic acid tert-butyl ester] | > 7.30 | > 7.30
